Measured values published in ChEMBL document CHEMBL1124898, “Novel agents effective against solid tumors: the diarylsulfonylureas. Synthesis, activities, and analysis of quantitative structure-activity relationships” (J Med Chem, 1990).
In brackets after ≈: the same amount, converted by molar mass.

Key:
CCRF-CEM = assay: Concentration required to inhibit growth of CCRF-CEM cells in culture for 72 hr to 50% of control growth; assay type: functional, cell-based; details: Homo sapiens
[1] = Antitumor activity in vivo against the 6C3HED lymphosarcoma, dosed for 8 days at 300 mg/kg; details: Mus musculus, 192 h

Row | Compound | IC50 (CCRF-CEM) [mg/L] | inhibition in vivo at 300 mg/kg [1] [%]
1 | Cc1ccc(S(=O)(=O)NC(=O)Nc2ncccn2)cc1 | > 20 | 0
2 | Cc1ccc(S(=O)(=O)NC(=O)Nc2ccc3c(c2)CCC3)cc1 | 15.7 (≈ 47.5 µM) | 5
3 | COc1cc(Cl)c(Cl)cc1NC(=O)NS(=O)(=O)c1ccc(C)cc1 | > 20 | 3
4 | CC(C)c1ccc(S(=O)(=O)NC(=O)Nc2ccc(Cl)cc2)cc1 | 8.7 (≈ 24.7 µM) | 65
5 | O=C(Nc1ccc(Cl)cc1)NS(=O)(=O)c1cccc2ccccc12 | 15.2 (≈ 42.1 µM) | 29
6 | COc1cccc(S(=O)(=O)NC(=O)Nc2ccc(Cl)cc2)c1 | 8 (≈ 23.5 µM) | 100
7 | O=C(Nc1ccc(Cl)cc1)NS(=O)(=O)c1ccc([N+](=O)[O-])cc1 | 12.1 (≈ 34 µM) | 70
8 | COc1ccc(NC(=O)NS(=O)(=O)c2ccc(C)cc2)cc1 | > 20 | 6
9 | Cc1ccc(S(=O)(=O)NC(=O)Nc2c(F)cc(F)cc2F)cc1 | > 20 | 27
10 | Nc1ccc(S(=O)(=O)NC(=O)Nc2ccc(Cl)cc2)cc1 | 13.9 (≈ 42.7 µM) | 43
11 | CCOc1ccc(S(=O)(=O)NC(=O)Nc2ccc(Cl)cc2)cc1 | 13 (≈ 36.6 µM) | 100
12 | O=C(Nc1ccc2c(c1)OCO2)NS(=O)(=O)c1ccc(Cl)cc1 | > 20 | 28
13 | O=C(NCCc1ccccc1)NS(=O)(=O)c1ccc2c(c1)CCC2 | > 20 | 0
14 | Cc1ccc(S(=O)(=O)NC(=O)Nc2c(F)c(F)cc(F)c2F)cc1 | > 20 | 0
15 | Cc1ccc(S(=O)(=O)NC(=O)NCc2ccccc2)cc1 | > 20 | 0
16 | Cc1ccc(S(=O)(=O)NC(=O)NCc2ccc(Cl)cc2)cc1 | > 20 | 14
17 | Cc1ccc(S(=O)(=O)NC(=O)Nc2ccc(N(C)C)cc2)cc1 | > 20 | 51
18 | Cc1ccc(S(=O)(=O)NC(=O)Nc2cccc(Cl)c2Cl)cc1 | > 20 | 37
19 | O=C(Nc1ccc(Br)cc1)NS(=O)(=O)c1ccc2c(c1)CCC2 | 17.6 (≈ 44.5 µM) | 92
20 | CCc1cccc(S(=O)(=O)NC(=O)Nc2ccc(Cl)cc2)c1 | 10.4 (≈ 30.7 µM) | 95
21 | Cc1ccc(S(=O)(=O)NC(=O)Nc2cc(F)cc(F)c2)cc1 | > 20 | 52
22 | CCc1cccc(NC(=O)NS(=O)(=O)c2ccc(C)cc2)c1 | > 20 | 0
23 | COc1ccc(S(=O)(=O)NC(=O)Nc2ccc(Cl)cc2)cc1OC | > 20 | 43

Row | Compound | IC50 (CCRF-CEM) [mg/L] | inhibition in vivo at 300 mg/kg [1] [%]
24 | CCCCCCCCc1ccc(S(=O)(=O)NC(=O)Nc2ccc(Cl)cc2)cc1 | 9 (≈ 21.3 µM) | 9
25 | CC(=O)Nc1ccc(S(=O)(=O)NC(=O)Nc2ccc(C(F)(F)F)cc2)cc1 | > 20 | 22
26 | O=C(Nc1ccc(F)cc1)NS(=O)(=O)c1ccc(Cl)cc1 | 14.5 (≈ 44.1 µM) | 74
27 | Cc1ccc(S(=O)(=O)NC(=O)Nc2ccncc2)cc1 | > 20 | 24
28 | O=C(Nc1ccc(Cl)cc1)NS(=O)(=O)c1ccc2c(c1)OCO2 | 9.1 (≈ 25.7 µM) | 100
29 | CCCc1ccc(S(=O)(=O)NC(=O)Nc2ccc(Cl)cc2)cc1 | 13.8 (≈ 39.1 µM) | 79
30 | O=C(Nc1ccc(Cl)cc1)NS(=O)(=O)c1ccc(CO)cc1 | > 20 | 15
31 | CCCOc1cccc(NC(=O)NS(=O)(=O)c2ccc(C)cc2)c1 | > 20 | 0
32 | Cc1ccc(S(=O)(=O)NC(=O)Nc2ccc(-c3ccccc3)cc2)cc1 | > 20 | 0
33 | Cc1ccc(S(=O)(=O)NC(=O)Nc2cccc(Cl)c2)cc1 | > 20 | 13
34 | Cc1ccc(S(=O)(=O)NC(=O)Nc2ccc(OCc3ccccc3)cc2)cc1 | > 20 | 0
35 | COC(=O)c1ccc(S(=O)(=O)NC(=O)Nc2ccc(Cl)cc2)cc1 | 17.4 (≈ 47.2 µM) | 49
36 | Cc1ccc(S(=O)(=O)NC(=O)Nc2ccc(S(N)(=O)=O)cc2)cc1 | – | 27
37 | Cc1ccc(S(=O)(=O)NC(=O)Nc2cc(C)cc(C)c2)cc1 | > 20 | 9
38 | Cc1ccc(S(=O)(=O)NC(=O)Nc2cccc(C)c2C)cc1 | – | 8
39 | Cc1ccc(S(=O)(=O)NC(=O)Nc2nc[nH]n2)cc1 | > 20 | 0
40 | Cc1ccc(S(=O)(=O)NC(=O)NCCc2ccccc2)cc1 | > 20 | 24
41 | Cc1ccc(S(=O)(=O)NC(=O)Nc2ccc(S(C)(=O)=O)cc2)cc1 | > 20 | 7
42 | Cc1ccc(S(=O)(=O)NC(=O)Nc2ccc(OC(F)F)cc2)cc1 | – | 15
43 | Cc1ccc(S(=O)(=O)NC(=O)Nc2cccc(C)c2)cc1 | > 20 | 0
44 | O=C(Nc1ccc(Cl)cc1)NS(=O)(=O)c1ccc2c(c1)OCCO2 | 13.5 (≈ 36.6 µM) | 49
45 | CSc1cccc(NC(=O)NS(=O)(=O)c2ccc(C)cc2)c1 | > 20 | 20
46 | Cc1ccc(S(=O)(=O)NC(=O)Nc2ccc(Br)c(C)c2)cc1 | 7.3 (≈ 19 µM) | 81

Row | Compound | IC50 (CCRF-CEM) [mg/L] | inhibition in vivo at 300 mg/kg [1] [%]
47 | Cc1ccc(S(=O)(=O)NC(=O)NC2CCC(O)CC2)cc1 (configuration not stated) | > 20 | 0
48 | CCc1ccc(S(=O)(=O)NC(=O)Nc2ccc(Cl)cc2)cc1CC | 12.4 (≈ 33.8 µM) | 46
49 | Cc1ccc(S(=O)(=O)NC(=O)Nc2ccc(OC(F)(F)F)cc2)cc1 | 18.4 (≈ 49.2 µM) | 17
50 | Cc1ccc(S(=O)(=O)NC(=O)Nc2ccc3[nH]ncc3c2)cc1 | > 20 | 0
51 | Cc1ccc(S(=O)(=O)NC(=O)Nc2ccc(C#N)cc2)cc1 | > 20 | 31
52 | COc1ccc(NC(=O)NS(=O)(=O)c2ccc(C)cc2)cc1Cl | > 20 | 0
53 | Cc1ccc(S(=O)(=O)NC(=O)Nc2cc(Cl)cc(Cl)c2)cc1 | > 20 | 21
54 | O=C(Nc1ccc(Cl)cc1)NS(=O)(=O)c1ccc(Oc2ccccc2)cc1 | 19.7 (≈ 48.9 µM) | 32
55 | Cc1ccc(S(=O)(=O)N(C)C(=O)Nc2ccc(Cl)cc2)cc1 | > 20 | 17
56 | O=C(Nc1ccc(F)cc1)NS(=O)(=O)c1ccc2c(c1)CCC2 | > 20 | 39
57 | Cc1ccc(NC(=O)NS(=O)(=O)c2ccc(C)cc2)cc1 | 11.6 (≈ 38.1 µM) | 91
58 | CCCCc1ccc(NC(=O)NS(=O)(=O)c2ccc(C)cc2)cc1 | 19.7 (≈ 56.9 µM) | 8
59 | O=C(Nc1ccc(C(F)(F)F)cc1)NS(=O)(=O)c1ccc2c(c1)CCC2 | 12 (≈ 31.2 µM) | 71
60 | Cc1ccc(S(=O)(=O)NC(=O)Nc2ccc(OCC(F)(F)F)cc2)cc1 | > 20 | 30
61 | Cc1ccc(S(=O)(=O)NC(=O)Nc2cc(C(C)(C)C)on2)cc1 | – | 5
62 | Cc1ccc(S(=O)(=O)NC(=O)Nc2ccc(Cl)c(C(F)(F)F)c2)cc1 | 18.6 (≈ 47.4 µM) | 18
63 | CCOC(=O)c1ccc(NC(=O)NS(=O)(=O)c2ccc(C)cc2)cc1 | > 20 | 12
64 | CSc1ccc(NC(=O)NS(=O)(=O)c2ccc(C)cc2)cc1 | > 20 | 17
65 | Cc1ccc(S(=O)(=O)NC(=O)Nc2ccc(Cl)c(C)c2)cc1 | 7.3 (≈ 21.5 µM) | 85
66 | O=C(NCCc1ccccc1)NS(=O)(=O)c1ccc2ccccc2c1 | > 20 | 0
67 | Cc1ccc(S(=O)(=O)NC(=O)Nc2nncs2)cc1 | > 20 | 16
68 | Cc1ccc(S(=O)(=O)NC(=O)Nc2cnccn2)cc1 | > 20 | 0
